According to PubChem BioAssay (NCI):
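A five-concentration, 48-hour dose response in 96-well plates underlies each endpoint, interpolated linearly between surrounding concentrations. At the GI50, growth is halved. TGI marks complete inhibition of growth.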

Experiments:
Test in all cases: NCI anticancer screen, dose series, 48 h
786-0 renal = system: 786-0 renal
A498 renal = system: A498 renal
A549 NSCLC = system: A549 NSCLC
ACHN renal = system: ACHN renal
BT-549 breast = system: BT-549 breast
CAKI-1 renal = system: CAKI-1 renal
CCRF-CEM leukemia = system: CCRF-CEM leukemia
COLO 205 colon = system: COLO 205 colon
DU-145 prostate = system: DU-145 prostate
EKVX NSCLC = system: EKVX NSCLC
HCC-2998 colon = system: HCC-2998 colon
HCT-116 colon = system: HCT-116 colon
HCT-15 colon = system: HCT-15 colon
HL-60(TB) leukemia = system: HL-60(TB) leukemia
HOP-62 NSCLC = system: HOP-62 NSCLC
HOP-92 NSCLC = system: HOP-92 NSCLC
HS 578T breast = system: HS 578T breast
HT29 colon = system: HT29 colon
IGROV1 ovarian = system: IGROV1 ovarian
KM12 colon = system: KM12 colon
LOX IMVI melanoma = system: LOX IMVI melanoma
M14 melanoma = system: M14 melanoma
MALME-3M melanoma = system: MALME-3M melanoma
MCF7 breast = system: MCF7 breast
MDA-MB-231 breast = system: MDA-MB-231 breast
MDA-MB-435 = system: MDA-MB-435
MOLT-4 leukemia = system: MOLT-4 leukemia
NCI-H226 lung = system: NCI-H226 lung
NCI-H23 lung = system: NCI-H23 lung
NCI-H460 lung = system: NCI-H460 lung
NCI/ADR-RES ovarian = system: NCI/ADR-RES ovarian
OVCAR-3 ovarian = system: OVCAR-3 ovarian
OVCAR-4 ovarian = system: OVCAR-4 ovarian
OVCAR-5 ovarian = system: OVCAR-5 ovarian
OVCAR-8 ovarian = system: OVCAR-8 ovarian
PC-3 prostate = system: PC-3 prostate
RXF 393 renal = system: RXF 393 renal
SF-268 CNS = system: SF-268 CNS
SF-295 CNS = system: SF-295 CNS
SF-539 CNS = system: SF-539 CNS
SK-MEL-2 melanoma = system: SK-MEL-2 melanoma
SK-MEL-28 melanoma = system: SK-MEL-28 melanoma
SK-MEL-5 melanoma = system: SK-MEL-5 melanoma
SK-OV-3 ovarian = system: SK-OV-3 ovarian
SN12C renal = system: SN12C renal
SNB-19 CNS = system: SNB-19 CNS
SNB-75 CNS = system: SNB-75 CNS
SW-620 colon = system: SW-620 colon
T-47D breast = system: T-47D breast
TK-10 renal = system: TK-10 renal
U251 CNS = system: U251 CNS
UACC-257 melanoma = system: UACC-257 melanoma
UACC-62 melanoma = system: UACC-62 melanoma
UO-31 renal = system: UO-31 renal

With `COc1cc(NC(C)CCCNC2CN3CCC2CC3)c2ncccc2c1` (stereo not drawn) the GI50 (786-0 renal) was 13.4 µM, the TGI (786-0 renal) was 27.1 µM and the GI50 (A498 renal) was 2.05 µM. It also gave a TGI (A498 renal) of 16.8 µM, a GI50 (A549 NSCLC) of 12.9 µM and a TGI (A549 NSCLC) of 27.5 µM. It also gave a GI50 (ACHN renal) of 14.7 µM, a TGI (ACHN renal) of 29.3 µM and a GI50 (BT-549 breast) of 14.8 µM. The TGI (BT-549 breast) was 29.3 µM, the GI50 (CAKI-1 renal) was 13.4 µM and the TGI (CAKI-1 renal) was 38.9 µM. For the same molecule, the GI50 (CCRF-CEM leukemia) was 19 µM, the TGI (CCRF-CEM leukemia) was > 100 µM and the GI50 (COLO 205 colon) was 2.58 µM. It also gave a TGI (COLO 205 colon) of 7.16 µM, a GI50 (DU-145 prostate) of 16.4 µM and a TGI (DU-145 prostate) of 30.2 µM. It also gave a GI50 (EKVX NSCLC) of 12.1 µM, a TGI (EKVX NSCLC) of 26.7 µM and a GI50 (HCC-2998 colon) of 11.1 µM. It also gave a TGI (HCC-2998 colon) of 24.8 µM, a GI50 (HCT-116 colon) of 3.75 µM and a TGI (HCT-116 colon) of 13.9 µM. It also gave a GI50 (HCT-15 colon) of 11.5 µM, a TGI (HCT-15 colon) of 27.3 µM and a GI50 (HL-60(TB) leukemia) of 2.86 µM. The TGI (HL-60(TB) leukemia) was 11 µM, the GI50 (HOP-62 NSCLC) was 11.9 µM and the TGI (HOP-62 NSCLC) was 24.8 µM. For the same molecule, the GI50 (HOP-92 NSCLC) was 4.37 µM, the TGI (HOP-92 NSCLC) was 21.8 µM and the GI50 (HS 578T breast) was 14.8 µM. For the same molecule, the TGI (HS 578T breast) was 39.6 µM, the GI50 (HT29 colon) was 3.7 µM and the TGI (HT29 colon) was 14 µM. It also gave a GI50 (IGROV1 ovarian) of 11.5 µM, a TGI (IGROV1 ovarian) of 31.2 µM and a GI50 (KM12 colon) of 14.6 µM. The TGI (KM12 colon) was 29.1 µM, the GI50 (LOX IMVI melanoma) was 9.6 µM and the TGI (LOX IMVI melanoma) was 25 µM. For the same molecule, the GI50 (M14 melanoma) was 3.92 µM, the TGI (M14 melanoma) was 13.5 µM and the GI50 (MALME-3M melanoma) was 10 µM. The TGI (MALME-3M melanoma) was 24.3 µM, the GI50 (MCF7 breast) was 1.64 µM and the TGI (MCF7 breast) was 3.58 µM. For the same molecule, the GI50 (MDA-MB-231 breast) was 3.58 µM, the TGI (MDA-MB-231 breast) was 15.7 µM and the GI50 (MDA-MB-435) was 8.71 µM. For the same molecule, the TGI (MDA-MB-435) was 22 µM, the GI50 (MOLT-4 leukemia) was 12.8 µM and the TGI (MOLT-4 leukemia) was 31.8 µM. It also gave a GI50 (NCI-H226 lung) of 13.6 µM, a TGI (NCI-H226 lung) of 27.7 µM and a GI50 (NCI-H23 lung) of 13.8 µM. The TGI (NCI-H23 lung) was 29.6 µM, the GI50 (NCI-H460 lung) was 15.9 µM and the TGI (NCI-H460 lung) was 32.3 µM. The GI50 (NCI/ADR-RES ovarian) was 24.6 µM, the TGI (NCI/ADR-RES ovarian) was > 100 µM and the GI50 (OVCAR-3 ovarian) was 3.22 µM. It also gave a TGI (OVCAR-3 ovarian) of 11.4 µM, a GI50 (OVCAR-4 ovarian) of 1.84 µM and a TGI (OVCAR-4 ovarian) of 6.51 µM. It also gave a GI50 (OVCAR-5 ovarian) of 14.5 µM, a TGI (OVCAR-5 ovarian) of 28.3 µM and a GI50 (OVCAR-8 ovarian) of 13.7 µM. It also gave a TGI (OVCAR-8 ovarian) of 30.1 µM, a GI50 (PC-3 prostate) of 12.5 µM and a TGI (PC-3 prostate) of 35.1 µM. The GI50 (RXF 393 renal) was 3.44 µM, the TGI (RXF 393 renal) was 15.4 µM and the GI50 (SF-268 CNS) was 12.2 µM. The TGI (SF-268 CNS) was 25.8 µM, the GI50 (SF-295 CNS) was 11.6 µM and the TGI (SF-295 CNS) was 27.7 µM. For the same molecule, the GI50 (SF-539 CNS) was 15.2 µM, the TGI (SF-539 CNS) was 30.5 µM and the GI50 (SK-MEL-2 melanoma) was 23.3 µM. The TGI (SK-MEL-2 melanoma) was 52.4 µM, the GI50 (SK-MEL-28 melanoma) was 11.3 µM and the TGI (SK-MEL-28 melanoma) was 23.7 µM. The GI50 (SK-MEL-5 melanoma) was 2.23 µM, the TGI (SK-MEL-5 melanoma) was 5.6 µM and the GI50 (SK-OV-3 ovarian) was 15.2 µM. It also gave a TGI (SK-OV-3 ovarian) of 28.5 µM, a GI50 (SN12C renal) of 14.1 µM and a TGI (SN12C renal) of 29.4 µM. The GI50 (SNB-19 CNS) was 15.8 µM, the TGI (SNB-19 CNS) was 32 µM and the GI50 (SNB-75 CNS) was 7.07 µM. The TGI (SNB-75 CNS) was 20.6 µM, the GI50 (SW-620 colon) was 11.9 µM and the TGI (SW-620 colon) was 27.6 µM. For the same molecule, the GI50 (T-47D breast) was 4.54 µM, the TGI (T-47D breast) was 20.5 µM and the GI50 (TK-10 renal) was 16.6 µM. For the same molecule, the TGI (TK-10 renal) was 31 µM, the GI50 (U251 CNS) was 10.6 µM and the TGI (U251 CNS) was 24 µM. For the same molecule, the GI50 (UACC-257 melanoma) was 2.39 µM, the TGI (UACC-257 melanoma) was 5.74 µM and the GI50 (UACC-62 melanoma) was 3.2 µM. It also gave a TGI (UACC-62 melanoma) of 10.5 µM, a GI50 (UO-31 renal) of 13.7 µM and a TGI (UO-31 renal) of 32.6 µM.
